Results on 10 compounds are retold here after US11110186B2, “Anionic chelate compounds” (GENERAL ELECTRIC COMPANY, priority 2017, dated 2021).

For data set [1] the following is noted: estimated in DMSO; arm —C(═O)—N—R2R3 of Formula I; cited from earlier work.
Data set [2] is described as follows: Measurement of r1 and r2 relaxivities (Bruker mq60 relaxometer). It is filed as physicochemical. Particulars: in water at 60 MHz and 40° C. How it is done: Manganese containing chelates were dissolved in water at concentrations ranging from […] Mn. T1 and T2 relaxation times were then measured at 60 MHz and 40° C. using a Bruker mq60 relaxometer. Linear fits (R^2>0.99 in all cases) of 1/T1 or 1/T2 as a function of Mn concentration gave r1 or r2 values respectively.
The values in Table 1 are relaxivities in water. The r1 value represents the ability of the chelate to generate T1 (or positive) contrast in a MR scanner while the r2 value represents the ability of the chelate to generate T2 (or negative) contrast in a MR scanner.

`CC(=O)NC/C=C1\SC(=O)NC1=O`: the “pKa (approx.)” value in data set [1] is on record as approximately 6.8.

As to `CC(=O)NCCc1ccc(S(=O)(=O)C[N+](=O)[O-])cc1`, in data set [1], the “pKa (approx.)” value is reported as approximately 7.1.

`CC(=O)NCCc1cc([N+](=O)[O-])ccc1S`: the “pKa (approx.)” value in data set [1] was approximately 5.5.

As to `CC(=O)NCCc1ccc(C(=O)C[N+](=O)[O-])cc1`, the “pKa (approx.)” value in data set [1] was approximately 7.7.

On to `CC(=O)NCCc1cc([N+](=O)[O-])cc([N+](=O)[O-])c1O`, for which the “pKa (approx.)” value in data set [1] is listed as approximately 5.1.

On to `CC(=O)NCCc1ccc(C(C#N)C#N)cc1`, for which the “pKa (approx.)” value in data set [1] is recorded as approximately 4.2.

With `CC(=O)NCCS(=O)(=O)O`, in data set [1], the “pKa (approx.)” value was approximately 1.6.

Consider `CN1CCN2Cc3cccc(n3)CN(CC1)C(CCC(=O)NCCS(=O)(=O)O)C(=O)[O][Mn][O]C(=O)C2CCC(=O)NCCS(=O)(=O)O` (stereo not shown) [Mn Chelate 1], for which the r1 relaxivity in data set [2] turned out to be 3.4 mM⁻¹ s⁻¹.

`CN1CCN2Cc3cccc(n3)CN(CC1)C(CCCCNC(=O)[C@H](O)[C@@H](O)C(=O)O)C(=O)[O][Mn][O]C(=O)C2CCCCNC(=O)[C@H](O)[C@@H](O)C(=O)O` (stereo partly shown) [Mn Chelate 2] gave a r1 relaxivity in data set [2] of 4.6 mM⁻¹ s⁻¹.

In the case of `CN1CCN2CC(=O)[O][Mn][O]C(=O)CN(CC1)Cc1cccc(n1)C2` [Mn Platform, reference compound], in data set [2], the r1 relaxivity was found to be 1.7 mM⁻¹ s⁻¹.
